Assay results: ChEMBL document CHEMBL3045420, “Regulation of glycogen metabolism by anti-dyslipidemic action of gemfibrozil and cholestyramine in a dyslipidemic-diabetic hamster model” (2008)

Tests used:
Syrian golden hamster [1] = assay: Antidyslipidemic activity in Mesocricetus auratus (Syrian golden hamster) high fat diet-induced dyslipidemic-diabetic model assessed as increase of cholic acid fecal excretion at 500 mg/kg, po qd for 10 days relative to control; type: functional, Feces
Syrian golden hamster [2] = assay: Antidyslipidemic activity in Mesocricetus auratus (Syrian golden hamster) high fat diet-induced dyslipidemic-diabetic model assessed as increase of lipase activity in muscle at 500 mg/kg, po qd for 10 days relative to control; type: functional
Syrian golden hamster [3] = assay: Antidyslipidemic activity in Mesocricetus auratus (Syrian golden hamster) high fat diet-induced dyslipidemic-diabetic model assessed as decrease of LHD in muscle by measuring […] oxidation at 500 mg/kg, po qd for 10 days relative to control; type: functional
Syrian golden hamster [4] = assay: Antidyslipidemic activity in Mesocricetus auratus (Syrian golden hamster) high fat diet-induced dyslipidemic-diabetic model assessed as increase of deoxycholic acid fecal excretion at 500 mg/kg, po qd for 10 days relative to control; type: functional, Feces
Syrian golden hamster [5] = assay: Antidyslipidemic activity in Mesocricetus auratus (Syrian golden hamster) high fat diet-induced dyslipidemic-diabetic model assessed as reduction of total cholesterol level in plasma at 500 mg/kg, po qd for 10 days relative to control; type: functional
Syrian golden hamster [6] = assay: Antidyslipidemic activity in Mesocricetus auratus (Syrian golden hamster) high fat diet-induced dyslipidemic-diabetic model assessed as reduction of total cholesterol level in muscle at 500 mg/kg, po qd for 10 days relative to control; type: functional
Syrian golden hamster [7] = assay: Antidyslipidemic activity in Mesocricetus auratus (Syrian golden hamster) high fat diet-induced dyslipidemic-diabetic model assessed as increase of glucose-6-phosphate level in muscle at 500 mg/kg, po qd for 10 days relative to control; type: functional
Syrian golden hamster [8] = assay: Antidyslipidemic activity in Mesocricetus auratus (Syrian golden hamster) high fat diet-induced dyslipidemic-diabetic model assessed as increase of glycogen level in liver at 500 mg/kg, po qd for 10 days relative to control; type: functional
Syrian golden hamster [9] = assay: Antidyslipidemic activity in Mesocricetus auratus (Syrian golden hamster) high fat diet-induced dyslipidemic-diabetic model assessed as increase of glucose-6-phosphatase in liver by measuring […] release per mg of protein at 500 mg/kg, po qd for 10 days relative to control; type: functional
Syrian golden hamster [10] = assay: Antidyslipidemic activity in Mesocricetus auratus (Syrian golden hamster) high fat diet-induced dyslipidemic-diabetic model assessed as reduction of phospholipid level in muscle at 500 mg/kg, po qd for 10 days relative to control; type: functional
Syrian golden hamster [11] = assay: Antidyslipidemic activity in Mesocricetus auratus (Syrian golden hamster) high fat diet-induced dyslipidemic-diabetic model assessed as increase of cholesterol fecal excretion at 500 mg/kg, po qd for 10 days relative to control; type: functional, Feces
Syrian golden hamster [12] = assay: Antidyslipidemic activity in Mesocricetus auratus (Syrian golden hamster) high fat diet-induced dyslipidemic-diabetic model assessed as increase of glycogen level in muscle at 500 mg/kg, po qd for 10 days relative to control; type: functional
Syrian golden hamster [13] = assay: Antidyslipidemic activity in Mesocricetus auratus (Syrian golden hamster) high fat diet-induced dyslipidemic-diabetic model assessed as decrease of LHD in liver by measuring […] oxidation at 500 mg/kg, po qd for 10 days relative to control; type: functional
Syrian golden hamster [14] = assay: Antidyslipidemic activity in Mesocricetus auratus (Syrian golden hamster) high fat diet-induced dyslipidemic-diabetic model assessed as increase of lipase activity in liver at 500 mg/kg, po qd for 10 days relative to control; type: functional
Syrian golden hamster [15] = assay: Antidyslipidemic activity in Mesocricetus auratus (Syrian golden hamster) high fat diet-induced dyslipidemic-diabetic model assessed as increase of nonesterfied fatty acid fecal excretion at 500 mg/kg, po qd for 10 days relative to control; type: functional, Feces
Syrian golden hamster [16] = assay: Antidyslipidemic activity in Mesocricetus auratus (Syrian golden hamster) high fat diet-induced dyslipidemic-diabetic model assessed as increase of triglyceride fecal excretion at 500 mg/kg, po qd for 10 days relative to control; type: functional, Feces
Syrian golden hamster [17] = assay: Antidyslipidemic activity in Mesocricetus auratus (Syrian golden hamster) high fat diet-induced dyslipidemic-diabetic model assessed as increase of glucose-6-phosphate level in liver at 500 mg/kg, po qd for 10 days relative to control; type: functional
Syrian golden hamster [18] = assay: Antidyslipidemic activity in Mesocricetus auratus (Syrian golden hamster) high fat diet-induced dyslipidemic-diabetic model assessed as increase of cholesterylesters fecal excretion at 500 mg/kg, po qd for 10 days relative to control; type: functional, Feces
Syrian golden hamster [19] = assay: Antidyslipidemic activity in Mesocricetus auratus (Syrian golden hamster) high fat diet-induced dyslipidemic-diabetic model assessed as reduction of phospholipid level in liver at 500 mg/kg, po qd for 10 days relative to control; type: functional
Syrian golden hamster [20] = assay: Antidyslipidemic activity in Mesocricetus auratus (Syrian golden hamster) high fat diet-induced dyslipidemic-diabetic model assessed as increase of glycogen phosphorylase in liver by measuring […] release per mg of protein at 500 mg/kg, po qd for 10 days relative to control; type: functional
Syrian golden hamster [21] = assay: Antidyslipidemic activity in Mesocricetus auratus (Syrian golden hamster) high fat diet-induced dyslipidemic-diabetic model assessed as reduction of triglyceride level in plasma at 500 mg/kg, po qd for 10 days relative to control; type: functional
Syrian golden hamster [22] = assay: Antidyslipidemic activity in Mesocricetus auratus (Syrian golden hamster) high fat diet-induced dyslipidemic-diabetic model assessed as reduction of glucose level in plasma at 500 mg/kg, po qd for 10 days relative to control; type: functional
Syrian golden hamster [23] = assay: Antidyslipidemic activity in Mesocricetus auratus (Syrian golden hamster) high fat diet-induced dyslipidemic-diabetic model assessed as effect on glycogen synthase in liver by measuring sodium pyruvate release at 500 mg/kg, po qd for 10 days relative to control; type: functional
Syrian golden hamster [24] = assay: Antidyslipidemic activity in Mesocricetus auratus (Syrian golden hamster) high fat diet-induced dyslipidemic-diabetic model assessed as increase of insulin secretion per ml of plasma at 500 mg/kg, po qd for 10 days relative to control; type: functional
Syrian golden hamster [25] = assay: Antidyslipidemic activity in Mesocricetus auratus (Syrian golden hamster) high fat diet-induced dyslipidemic-diabetic model assessed as reduction of nonesterfied fatty acid level in plasma at 500 mg/kg, po qd for 10 days relative to control; type: functional
Syrian golden hamster [26] = assay: Antidyslipidemic activity in Mesocricetus auratus (Syrian golden hamster) high fat diet-induced dyslipidemic-diabetic model assessed as increase of hexokinase in muscle by measuring […] release per mg of protein at 500 mg/kg, po qd for 10 days relative to control; type: functional
Syrian golden hamster [27] = assay: Antidyslipidemic activity in Mesocricetus auratus (Syrian golden hamster) high fat diet-induced dyslipidemic-diabetic model assessed as reduction of triglyceride level in muscle at 500 mg/kg, po qd for 10 days relative to control; type: functional
Syrian golden hamster [28] = assay: Antidyslipidemic activity in Mesocricetus auratus (Syrian golden hamster) high fat diet-induced dyslipidemic-diabetic model assessed as reduction of triglyceride level in liver at 500 mg/kg, po qd for 10 days relative to control; type: functional
Syrian golden hamster [29] = assay: Antidyslipidemic activity in Mesocricetus auratus (Syrian golden hamster) high fat diet-induced dyslipidemic-diabetic model assessed as reduction of lipolysis in adipose tissue at 500 mg/kg, po qd for 10 days relative to control; type: functional; set-up: scale not given: the % may be the effect or the level left
Syrian golden hamster [30] = assay: Antidyslipidemic activity in Mesocricetus auratus (Syrian golden hamster) high fat diet-induced dyslipidemic-diabetic model assessed as reduction of total cholesterol level in liver at 500 mg/kg, po qd for 10 days relative to control; type: functional
Syrian golden hamster [31] = assay: Antidyslipidemic activity in Mesocricetus auratus (Syrian golden hamster) high fat diet-induced dyslipidemic-diabetic model assessed as effect on glycogen synthase in muscle by measuring sodium pyruvate release at 500 mg/kg, po qd for 10 days relative to control; type: functional
Syrian golden hamster [32] = assay: Antidyslipidemic activity in Mesocricetus auratus (Syrian golden hamster) high fat diet-induced dyslipidemic-diabetic model assessed as reduction of glycerol level in plasma at 500 mg/kg, po qd for 10 days relative to control; type: functional
Syrian golden hamster [33] = assay: Antidyslipidemic activity in Mesocricetus auratus (Syrian golden hamster) high fat diet-induced dyslipidemic-diabetic model assessed as increase of glycogen phosphorylase in muscle by measuring […] release per mg of protein at 500 mg/kg, po qd for 10 days relative to control; type: functional

In the case of Cc1ccc(C)c(OCCCC(C)(C)C(=O)O)c1 [GEMFIBROZIL], the Activity (Syrian golden hamster [1]) is reported as 65.2 µg/g, the Activity (Syrian golden hamster [2]) is reported as 80% and the Activity (Syrian golden hamster [3]) is reported as 21.73 nmol/min/mg. It also gave an Activity (Syrian golden hamster [4]) of 38.48 µg/g, an Activity (Syrian golden hamster [5]) of 269.72 mg/dL and an Activity (Syrian golden hamster [6]) of 1.25 mg/g. It also gave an Activity (Syrian golden hamster [7]) of 0.2 µmol/g, an Activity (Syrian golden hamster [8]) of 28.49 mg/g and an Activity (Syrian golden hamster [9]) of 0.345 µM/min. The Activity (Syrian golden hamster [10]) was 5.14 mg/g, the Activity (Syrian golden hamster [11]) was 858.81 µg/g and the Activity (Syrian golden hamster [12]) was 3.6 mg/g. It also gave an Activity (Syrian golden hamster [13]) of 3.61 nmol/min/mg, an Activity (Syrian golden hamster [14]) of 60% and an Activity (Syrian golden hamster [15]) of 53.79 µmol/g. It also gave an Activity (Syrian golden hamster [16]) of 960 µg/g, an Activity (Syrian golden hamster [17]) of 0.59 µmol/g and an Activity (Syrian golden hamster [18]) of 258.79 µg/g. For the same molecule, the Activity (Syrian golden hamster [19]) was 10.47 mg/g, the Activity (Syrian golden hamster [20]) was 5.6 µM/h and the Activity (Syrian golden hamster [21]) was 220.86 mg/dL. For the same molecule, the Activity (Syrian golden hamster [22]) was 57.57 mg/dL, the Activity (Syrian golden hamster [23]) was 0.057 nmol/min/mg and the Activity (Syrian golden hamster [24]) was 34 uU/ml. For the same molecule, the Activity (Syrian golden hamster [25]) was 1.56 µmol/dL, the Activity (Syrian golden hamster [26]) was 0.066 µM/min and the Activity (Syrian golden hamster [27]) was 6.3 mg/g. The Activity (Syrian golden hamster [28]) was 7.92 mg/g, the Activity (Syrian golden hamster [29]) was 19% and the Activity (Syrian golden hamster [30]) was 2.61 mg/g. The Activity (Syrian golden hamster [31]) was 0.063 nmol/min/mg, the Activity (Syrian golden hamster [32]) was 51.66 mg/dL and the Activity (Syrian golden hamster [33]) was 36.11 µM/h.
